Measurements from the NIST ThermoML archive (doi:10.1016/j.fluid.2011.01.007).
± gives the expanded uncertainty stated by the source.

Columns and labels:
[1] = refractive index (Na D-line) (dimensionless); conditions: 298.15 K; 101.33 kPa; Liquid; Standard Abbe refractometry
[2] = 298.15 K; 101.33 kPa; Liquid; Vibrating tube method
[3] = xn = mol fraction of the nth substance listed; conditions: 298.15 K, 101 kPa, Liquid, Vibrating tube method
[4] = refractive index (Na D-line) (dimensionless); xn = mol fraction of the nth substance listed; conditions: 298.15 K, 101 kPa, Liquid, Standard Abbe refractometry

## CCO [ethanol]
[1]
  refractive index: 1.35928 ± 0.00033
[2]
  mass density: 785.33 ± 0.39 kg/m3

## COC(=O)OC [dimethyl carbonate] + Cc1ccccc1
[3]; x1 = 0.0496
  mass density: 869.6 ± 0.1 kg/m3
[3]; x1 = 0.0998
  mass density: 877.39 ± 0.1 kg/m3
[3]; x1 = 0.2001
  mass density: 893.69 ± 0.09 kg/m3
[3]; x1 = 0.3003
  mass density: 910.85 ± 0.09 kg/m3
[3]; x1 = 0.3998
  mass density: 928.88 ± 0.08 kg/m3
[3]; x1 = 0.5002
  mass density: 948 ± 0.08 kg/m3
[3]; x1 = 0.5999
  mass density: 968.16 ± 0.08 kg/m3
[3]; x1 = 0.6999
  mass density: 989.62 ± 0.07 kg/m3
[3]; x1 = 0.7998
  mass density: 1012.35 ± 0.08 kg/m3
[3]; x1 = 0.8988
  mass density: 1036.61 ± 0.08 kg/m3
[3]; x1 = 0.9487
  mass density: 1049.29 ± 0.09 kg/m3
[4]; x1 = 0.0496
  refractive index: 1.4883 ± 0.0004
[4]; x1 = 0.0998
  refractive index: 1.4827 ± 0.0004
[4]; x1 = 0.2001
  refractive index: 1.4715 ± 0.0004
[4]; x1 = 0.3003
  refractive index: 1.4597 ± 0.0004
[4]; x1 = 0.3998
  refractive index: 1.4475 ± 0.0004
[4]; x1 = 0.5002
  refractive index: 1.4352 ± 0.0004
[4]; x1 = 0.5999
  refractive index: 1.4224 ± 0.0004
[4]; x1 = 0.6999
  refractive index: 1.4091 ± 0.0004
[4]; x1 = 0.7998
  refractive index: 1.3954 ± 0.0003
[4]; x1 = 0.8988
  refractive index: 1.3814 ± 0.0003
[4]; x1 = 0.9487
  refractive index: 1.3741 ± 0.0003

## Cc1ccccc1 [toluene]
[1]
  refractive index: 1.49397 ± 0.00037
[2]
  mass density: 862.19 ± 0.42 kg/m3

## c1ccccc1 [benzene]
[1]
  refractive index: 1.49764 ± 0.00037
[2]
  mass density: 873.57 ± 0.43 kg/m3

## COC(=O)OC [dimethyl carbonate] + c1ccccc1
[3]; x1 = 0.0518
  mass density: 882.09 ± 0.1 kg/m3
[3]; x1 = 0.0988
  mass density: 889.99 ± 0.09 kg/m3
[3]; x1 = 0.1995
  mass density: 907.42 ± 0.09 kg/m3
[3]; x1 = 0.2994
  mass density: 925.15 ± 0.08 kg/m3
[3]; x1 = 0.401
  mass density: 943.6 ± 0.08 kg/m3
[3]; x1 = 0.5002
  mass density: 962.07 ± 0.08 kg/m3
[3]; x1 = 0.6003
  mass density: 981.15 ± 0.07 kg/m3
[3]; x1 = 0.699
  mass density: 1000.51 ± 0.07 kg/m3
[3]; x1 = 0.7981
  mass density: 1020.48 ± 0.08 kg/m3
[3]; x1 = 0.9
  mass density: 1041.49 ± 0.08 kg/m3
[3]; x1 = 0.9497
  mass density: 1052 ± 0.09 kg/m3
[4]; x1 = 0.0518
  refractive index: 1.4902 ± 0.0004
[4]; x1 = 0.0988
  refractive index: 1.4836 ± 0.0004
[4]; x1 = 0.1995
  refractive index: 1.4699 ± 0.0004
[4]; x1 = 0.2994
  refractive index: 1.4565 ± 0.0004
[4]; x1 = 0.401
  refractive index: 1.4431 ± 0.0004
[4]; x1 = 0.5002
  refractive index: 1.4301 ± 0.0004
[4]; x1 = 0.6003
  refractive index: 1.417 ± 0.0004
[4]; x1 = 0.699
  refractive index: 1.4044 ± 0.0004
[4]; x1 = 0.7981
  refractive index: 1.3918 ± 0.0003
[4]; x1 = 0.9
  refractive index: 1.3789 ± 0.0003
[4]; x1 = 0.9497
  refractive index: 1.3727 ± 0.0003

## COC(=O)OC [dimethyl carbonate]
[1]
  refractive index: 1.36654 ± 0.00033
[2]
  mass density: 1063.04 ± 0.51 kg/m3
